Experimental data reported in article PMC11501026, “L-Arginine and asymmetric dimethylarginine (ADMA) transport across the mouse blood-brain and blood-CSF barriers: Evidence of saturable transport at both interfaces and CNS to blood efflux” (PLOS ONE, 2024).
Structures can show the parent of a compound that is named as a salt. Where two headings read alike, the source gives them in different places.

Columns and labels:
Format in all cases: in vivo, mouse
[1] = test system: [3H]-ADMA transport across the blood-brain and blood-CSF barriers; assay: self-inhibition, in situ perfusion: [^3H]-ADMA with 100 μM unlabelled ADMA; conditions: male, Balb/c, mouse, other: in situ brain perfusion, with unlabelled ADMA 100 µM, 10 mins, Balb/c ♂, 5ml/min
Protocol: (§1) Self-inhibition experiments were also performed. […] Cross-competition experiments were also performed.
(§2) The percentage change in the RTissue uptake values achieved in the absence or presence of an unlabelled inhibitor can be calculated by means of Eq 4.
(§3) %change=RTissue−RInhibition/RTissue×100 Eq 4
(§4) We define RInhibition as the RTissue uptake in the presence of an inhibitor in the artificial plasma.
(§5) A decrease in the uptake of radiolabelled solute in the presence of unlabelled inhibitor is indicative of a saturable influx transport system. Conversely, an increase in the uptake of radiolabelled solute in the presence of unlabelled inhibitor is indicative of a saturable efflux transport system.

[2] = cross-inhibition, in situ perfusion: [^3H]-ADMA with 100 μM unlabelled L-arginine; conditions: male, Balb/c, mouse, other: in situ brain perfusion, with 100 µM unlabelled L-arginine, 10 mins, Balb/c ♂, 5ml/min
Protocol: as §1, §2, §3, §4, §5

[3] = test system: [3H]-ADMA transport across the blood-brain and blood-CSF barriers; assay: as above; conditions: male, Balb/c, mouse, other: in situ brain perfusion, with 100 µM unlabelled L-arginine, 10 mins, Balb/c ♂, 5ml/min
Protocol: as §1, §2, §3, §4, §5

## CN(C)C(N)=NCCC[C@H](N)C(=O)O [ADMA, N^G,N^G-dimethylarginine dihydrochloride]
[1]; CSF, Difference (ADMA minus Sucrose), CSF, + 100uM un-labelled ADMA, mean
  Kp at 10 min, 62.5 nM: 2.01
[1]; CSF, [3H] ADMA + [14C] Sucrose + 100uM un-labelled ADMA, mean, read-out: uptake into CSF
  Kp at 10 min, 62.5 nM: 2.15
[1]; cerebellum, Difference (ADMA minus Sucrose), cerebellum, + 100uM un-labelled ADMA, individual mice
  Kp at 10 min, 62.5 nM: 0.0515
[1]; cerebellum, Difference (ADMA minus Sucrose), cerebellum, + 100uM un-labelled ADMA, mean
  Kp at 10 min, 62.5 nM: 0.0701
[1]; cerebellum, [3H] ADMA + [14C] Sucrose + 100uM un-labelled ADMA, individual mice, read-out: uptake into cerebellum
  Kp at 10 min, 62.5 nM: 0.09
[1]; cerebellum, [3H] ADMA + [14C] Sucrose + 100uM un-labelled ADMA, mean, read-out: uptake into cerebellum
  Kp at 10 min, 62.5 nM: 0.121
[1]; homogenate, Difference (ADMA minus Sucrose), homogenate, + 100uM un-labelled ADMA, mean
  Kp at 10 min, 62.5 nM: 0.0396
[1]; homogenate, [3H] ADMA + [14C] Sucrose + 100uM un-labelled ADMA, individual mice, read-out: uptake, homogenate
  Kp at 10 min, 62.5 nM: 0.0686
[1]; homogenate, [3H] ADMA + [14C] Sucrose + 100uM un-labelled ADMA, mean, read-out: uptake, homogenate
  Kp at 10 min, 62.5 nM: 0.0884
[1]; hypothalamus, Difference (ADMA minus Sucrose), hypothalamus, + 100uM un-labelled ADMA, mean
  Kp at 10 min, 62.5 nM: 0.0972
[1]; hypothalamus, [3H] ADMA + [14C] Sucrose + 100uM un-labelled ADMA, mean, read-out: uptake into hypothalamus
  Kp at 10 min, 62.5 nM: 0.146
[1]; pellet, Difference (ADMA minus Sucrose), pellet, + 100uM un-labelled ADMA, individual mice
  Kp at 10 min, 62.5 nM: 0.01
[1]; pellet, [3H] ADMA + [14C] Sucrose + 100uM un-labelled ADMA, individual mice, read-out: uptake, pellet
  Kp at 10 min, 62.5 nM: 0.0144
[1]; pellet, [3H] ADMA + [14C] Sucrose + 100uM un-labelled ADMA, mean, read-out: uptake, pellet
  Kp at 10 min, 62.5 nM: 0.0179
[1]; pituitary gland, Difference (ADMA minus Sucrose), pituitary gland, + 100uM un-labelled ADMA, mean
  Kp at 10 min, 62.5 nM: 0.586
[1]; pituitary gland, [3H] ADMA + [14C] Sucrose + 100uM un-labelled ADMA, mean, read-out: uptake into pituitary gland
  Kp at 10 min, 62.5 nM: 0.681
[1]; pons, Difference (ADMA minus Sucrose), pons, + 100uM un-labelled ADMA, mean
  Kp at 10 min, 62.5 nM: 0.0724
[1]; pons, [3H] ADMA + [14C] Sucrose + 100uM un-labelled ADMA, individual mice, read-out: uptake into pons
  Kp at 10 min, 62.5 nM: 0.102
[1]; pons, [3H] ADMA + [14C] Sucrose + 100uM un-labelled ADMA, mean, read-out: uptake into pons
  Kp at 10 min, 62.5 nM: 0.127
[1]; supernatant, Difference (ADMA minus Sucrose), supernatant, + 100uM un-labelled ADMA, mean
  Kp at 10 min, 62.5 nM: 0.0316
[1]; supernatant, [3H] ADMA + [14C] Sucrose + 100uM un-labelled ADMA, individual mice, read-out: uptake, supernatant
  Kp at 10 min, 62.5 nM: 0.047
[1]; supernatant, [3H] ADMA + [14C] Sucrose + 100uM un-labelled ADMA, mean, read-out: uptake, supernatant
  Kp at 10 min, 62.5 nM: 0.0703
[1]; thalamus, Difference (ADMA minus Sucrose), thalamus, + 100uM un-labelled ADMA, mean
  Kp at 10 min, 62.5 nM: 0.0727
[1]; thalamus, [3H] ADMA + [14C] Sucrose + 100uM un-labelled ADMA, individual mice, read-out: uptake into thalamus
  Kp at 10 min, 62.5 nM: 0.077
[1]; thalamus, [3H] ADMA + [14C] Sucrose + 100uM un-labelled ADMA, mean, read-out: uptake into thalamus
  Kp at 10 min, 62.5 nM: 0.117
[2]; CSF, [3H] ADMA + [14C] Sucrose + 100uM Arg, mean, read-out: uptake into CSF
  Kp at 10 min, 62.5 nM: 0.162
[2]; brain homogenate, Difference (ADMA minus Sucrose), homogenate, + 100uM Arg, mean
  Kp at 10 min, 62.5 nM: 0.0265
[2]; brain homogenate, [3H] ADMA + [14C] Sucrose + 100uM Arg, mean, read-out: uptake, homogenate
  Kp at 10 min, 62.5 nM: 0.063
[2]; pellet, Difference (ADMA minus Sucrose), pellet, + 100uM Arg, individual mice
  Kp at 10 min, 62.5 nM: 0.00309
[2]; pellet, [3H] ADMA + [14C] Sucrose + 100uM Arg, mean, read-out: uptake, pellet
  Kp at 10 min, 62.5 nM: 0.011
[2]; supernatant, Difference (ADMA minus Sucrose), supernatant, + 100uM Arg, mean
  Kp at 10 min, 62.5 nM: 0.0204
[2]; supernatant, [3H] ADMA + [14C] Sucrose + 100uM Arg, mean, read-out: uptake, supernatant
  Kp at 10 min, 62.5 nM: 0.0475
[3]; caudate nucleus, Difference (ADMA minus Sucrose), caudate nucleus, + 100uM Arg, mean
  Kp at 10 min, 62.5 nM: 0.0481
[3]; caudate nucleus, [3H] ADMA + [14C] Sucrose + 100uM Arg, individual mice, read-out: uptake into caudate nucleus
  Kp at 10 min, 62.5 nM: 0.0565
[3]; caudate nucleus, [3H] ADMA + [14C] Sucrose + 100uM Arg, mean, read-out: uptake into caudate nucleus
  Kp at 10 min, 62.5 nM: 0.0664
[3]; cerebellum, Difference (ADMA minus Sucrose), cerebellum, + 100uM Arg, mean
  Kp at 10 min, 62.5 nM: 0.0445
[3]; cerebellum, [3H] ADMA + [14C] Sucrose + 100uM Arg, mean, read-out: uptake into cerebellum
  Kp at 10 min, 62.5 nM: 0.0673
[3]; choroid plexus, Difference (ADMA minus Sucrose), choroid plexus, + 100uM Arg, individual mice
  Kp at 10 min, 62.5 nM: 0.469
[3]; choroid plexus, Difference (ADMA minus Sucrose), choroid plexus, + 100uM Arg, mean
  Kp at 10 min, 62.5 nM: 0.471
[3]; choroid plexus, [3H] ADMA + [14C] Sucrose + 100uM Arg, individual mice, read-out: uptake into choroid plexus
  Kp at 10 min, 62.5 nM: 0.609
[3]; choroid plexus, [3H] ADMA + [14C] Sucrose + 100uM Arg, mean, read-out: uptake into choroid plexus
  Kp at 10 min, 62.5 nM: 0.616
[3]; frontal cortex, Difference (ADMA minus Sucrose), frontal cortex, + 100uM Arg, mean
  Kp at 10 min, 62.5 nM: 0.0598
[3]; frontal cortex, [3H] ADMA + [14C] Sucrose + 100uM Arg, mean, read-out: uptake into frontal cortex
  Kp at 10 min, 62.5 nM: 0.0858
[3]; hippocampus, Difference (ADMA minus Sucrose), hippocampus, + 100uM Arg, mean
  Kp at 10 min, 62.5 nM: 0.0475
[3]; hippocampus, [3H] ADMA + [14C] Sucrose + 100uM Arg, mean, read-out: uptake into hippocampus
  Kp at 10 min, 62.5 nM: 0.0608
